Read-outs that look alike come from different tables or passages of the source.
Tests used:
Type in all cases: in vitro ADME
hOCT1 = biological target: T1, hOCT1 (Homo sapiens, UniProt O15245); assay: Inhibition of hOCT1-mediated substrate uptake in transfected HEK293 cells; conditions: for In vivo DDI study recommendation, hOCT1: FDA-recommended criteria
T1 construct: expressed in transfected cells
T1 sequence (O15245 1-554): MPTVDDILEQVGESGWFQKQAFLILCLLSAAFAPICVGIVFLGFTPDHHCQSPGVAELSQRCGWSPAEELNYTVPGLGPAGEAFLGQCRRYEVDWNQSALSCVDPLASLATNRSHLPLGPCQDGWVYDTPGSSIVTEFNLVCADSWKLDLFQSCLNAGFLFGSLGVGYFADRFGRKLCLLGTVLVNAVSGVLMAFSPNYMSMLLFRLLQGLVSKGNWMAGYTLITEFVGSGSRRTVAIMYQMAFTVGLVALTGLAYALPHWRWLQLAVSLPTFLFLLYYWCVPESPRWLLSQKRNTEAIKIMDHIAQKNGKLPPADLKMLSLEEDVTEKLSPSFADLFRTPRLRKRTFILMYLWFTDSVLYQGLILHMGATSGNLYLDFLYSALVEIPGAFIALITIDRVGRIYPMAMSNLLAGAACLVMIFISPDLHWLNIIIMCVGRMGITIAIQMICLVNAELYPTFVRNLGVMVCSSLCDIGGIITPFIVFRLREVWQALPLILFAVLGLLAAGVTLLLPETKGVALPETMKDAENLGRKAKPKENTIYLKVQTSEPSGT

hOCT3 = biological target: T2, hOCT3 (Homo sapiens, UniProt O75751); assay: Inhibition of hOCT3-mediated substrate uptake in transfected HEK293 cells; conditions: for In vivo DDI study recommendation, hOCT3: FDA-recommended criteria
T2 construct: expressed in transfected cells
T2 sequence (O75751 1-556): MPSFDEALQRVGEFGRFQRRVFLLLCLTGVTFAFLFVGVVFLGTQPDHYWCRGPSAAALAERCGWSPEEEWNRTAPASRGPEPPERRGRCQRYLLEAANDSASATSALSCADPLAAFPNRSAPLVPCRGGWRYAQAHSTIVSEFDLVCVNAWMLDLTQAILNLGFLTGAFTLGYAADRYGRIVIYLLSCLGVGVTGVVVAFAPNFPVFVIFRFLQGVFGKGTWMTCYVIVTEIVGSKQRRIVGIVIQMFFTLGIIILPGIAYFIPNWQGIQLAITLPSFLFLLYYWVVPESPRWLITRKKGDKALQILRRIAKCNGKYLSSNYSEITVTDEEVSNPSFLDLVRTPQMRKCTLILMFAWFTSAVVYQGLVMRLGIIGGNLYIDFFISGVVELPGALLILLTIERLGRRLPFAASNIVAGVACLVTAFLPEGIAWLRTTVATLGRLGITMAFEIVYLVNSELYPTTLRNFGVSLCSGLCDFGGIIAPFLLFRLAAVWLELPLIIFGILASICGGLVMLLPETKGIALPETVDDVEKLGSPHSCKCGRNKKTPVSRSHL

hMATE1 = biological target: T3, hMATE1 (Homo sapiens, UniProt Q96FL8); assay: Inhibition of hMATE1-mediated substrate uptake in transfected HEK293 cells (pH 8.0); conditions: for In vivo DDI study recommendation, hMATE1: FDA-recommended criteria
T3 construct: expressed in transfected cells
T3 sequence (Q96FL8 1-570): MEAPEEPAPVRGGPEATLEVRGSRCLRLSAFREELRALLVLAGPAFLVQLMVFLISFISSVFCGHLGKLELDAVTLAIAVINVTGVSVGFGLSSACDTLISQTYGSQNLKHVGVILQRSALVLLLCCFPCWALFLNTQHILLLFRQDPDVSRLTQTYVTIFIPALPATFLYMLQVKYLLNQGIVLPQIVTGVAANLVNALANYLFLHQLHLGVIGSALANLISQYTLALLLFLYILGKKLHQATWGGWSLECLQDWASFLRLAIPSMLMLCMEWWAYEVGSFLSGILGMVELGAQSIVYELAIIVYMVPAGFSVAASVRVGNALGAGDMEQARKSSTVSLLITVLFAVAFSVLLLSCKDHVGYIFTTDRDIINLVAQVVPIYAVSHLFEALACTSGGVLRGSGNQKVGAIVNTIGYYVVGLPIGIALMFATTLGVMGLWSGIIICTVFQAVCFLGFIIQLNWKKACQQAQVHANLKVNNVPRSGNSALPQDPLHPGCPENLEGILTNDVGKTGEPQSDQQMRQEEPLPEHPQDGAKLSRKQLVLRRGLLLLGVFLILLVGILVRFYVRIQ

hMATE2-K = biological target: T4, hMATE2-K (Homo sapiens, UniProt Q86VL8); assay: Inhibition of hMATE2-K-mediated substrate uptake in transfected HEK293 cells (pH 8.0); conditions: for IC50: HEK293, 2 min, 37 °C, mean ± SD; for In vivo DDI study recommendation, hMATE2-K: FDA-recommended criteria
T4 construct: expressed in transfected cells
T4 sequence (Q86VL8 1-566 isoform Q86VL8-3): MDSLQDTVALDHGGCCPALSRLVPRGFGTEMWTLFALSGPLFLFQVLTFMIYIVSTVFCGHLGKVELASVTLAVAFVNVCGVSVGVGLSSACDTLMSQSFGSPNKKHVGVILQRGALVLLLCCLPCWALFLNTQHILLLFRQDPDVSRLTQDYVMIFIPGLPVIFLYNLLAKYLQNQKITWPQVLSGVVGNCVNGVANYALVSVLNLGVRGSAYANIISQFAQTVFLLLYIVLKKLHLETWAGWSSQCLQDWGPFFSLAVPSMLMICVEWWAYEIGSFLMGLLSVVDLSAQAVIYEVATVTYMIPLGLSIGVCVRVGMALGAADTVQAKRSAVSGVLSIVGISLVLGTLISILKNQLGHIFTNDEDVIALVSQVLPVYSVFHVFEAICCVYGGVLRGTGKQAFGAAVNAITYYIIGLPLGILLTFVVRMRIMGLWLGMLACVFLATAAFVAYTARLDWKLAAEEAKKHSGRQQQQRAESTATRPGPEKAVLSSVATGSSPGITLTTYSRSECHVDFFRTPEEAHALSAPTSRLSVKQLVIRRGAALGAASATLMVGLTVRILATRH

hOCT2 = biological target: T5, hOCT2 (Homo sapiens, UniProt O15244); assay: Inhibition of hOCT2-mediated substrate uptake in transfected HEK293 cells; parameters: expressed in transfected cells; conditions: for In vivo DDI study recommendation, hOCT2: FDA-recommended criteria
T5 sequence (O15244 1-555): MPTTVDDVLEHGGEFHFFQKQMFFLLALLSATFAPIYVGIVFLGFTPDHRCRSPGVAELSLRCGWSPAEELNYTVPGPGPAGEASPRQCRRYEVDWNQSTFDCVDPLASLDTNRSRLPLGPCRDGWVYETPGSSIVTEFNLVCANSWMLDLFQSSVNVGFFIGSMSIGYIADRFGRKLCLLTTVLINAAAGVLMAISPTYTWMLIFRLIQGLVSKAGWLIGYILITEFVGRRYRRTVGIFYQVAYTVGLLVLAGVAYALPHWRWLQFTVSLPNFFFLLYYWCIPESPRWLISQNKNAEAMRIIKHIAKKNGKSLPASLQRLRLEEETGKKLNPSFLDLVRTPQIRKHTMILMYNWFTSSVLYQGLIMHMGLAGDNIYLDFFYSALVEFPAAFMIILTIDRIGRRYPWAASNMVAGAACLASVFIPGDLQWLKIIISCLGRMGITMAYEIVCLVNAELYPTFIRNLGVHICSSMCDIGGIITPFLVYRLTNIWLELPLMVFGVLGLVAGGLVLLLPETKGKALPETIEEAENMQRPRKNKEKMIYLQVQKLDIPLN

[1] = HEK293, 20 µM inhibitor, 1 µM mIBG, 2 min, 37 °C

**Q.** For `COc1cc(N2CCC(N3CCN(C)CC3)CC2)ccc1Nc1ncc(Cl)c(Nc2ccccc2P(C)(C)=O)n1` [Brigatinib], which IC50 (hOCT1) is on record?
**A.** Its IC50 is 1.12 ± 0.04 µM.

**Q.** What about the inhibition at 20 µM (hOCT1; [1]) of the same compound?
**A.** Its inhibition at 20 µM is over 50%.

**Q.** What about the “substrate dependency, hOCT1: more potent with metformin than with MPP+” value (hOCT1; IC50 ratio MPP+/metformin) of the same compound?
**A.** The value was about 22 fold.

**Q.** What about the “substrate dependency, hOCT1: more potent with metformin than with mIBG” value (hOCT1; IC50 ratio mIBG/metformin) of the same compound?
**A.** Its value is “approximately 15 fold”.

**Q.** And the IC50 (hOCT1; substrate 1 µM [3H]MPP+, HEK293, 2 min, 37 °C, mean ± SD, read-out: IC50, hOCT1-mediated MPP+ uptake)?
**A.** Its IC50 is 25.1 ± 1.2 µM.

**Q.** What about the IC50 (hOCT1; substrate 1 µM mIBG, HEK293, 2 min, 37 °C, mean ± SD, read-out: IC50, hOCT1-mediated mIBG uptake) of the same compound?
**A.** The IC50 was 17.1 ± 0.6 µM.

**Q.** What about the “In vivo DDI study recommendation, hOCT1” value (hOCT1; substrate MPP+) of the same compound?
**A.** The value was “No”.

**Q.** And the “In vivo DDI study recommendation, hOCT1” value (hOCT1; substrate mIBG)?
**A.** The value was “No”.

**Q.** And the “In vivo DDI study recommendation, hOCT1” value (hOCT1; substrate metformin)?
**A.** Its value is “Yes”.

**Q.** And the IC50 (hOCT3)?
**A.** Its IC50 is 850 ± 70 nM.

**Q.** What about the inhibition at 20 µM (hOCT3; HEK293, read-out: inhibition of mIBG uptake by hOCT3) of the same compound?
**A.** Its inhibition at 20 µM is over 80%.

**Q.** And the “substrate dependency, hOCT3: differences in IC50 values across substrates” value (hOCT3; metformin, mIBG, MPP+)?
**A.** The value was “up to 3 fold”.

**Q.** What about the IC50 (hOCT3; substrate 1 µM [3H]MPP+, HEK293, 2 min, 37 °C, mean ± SD, read-out: IC50, hOCT3-mediated MPP+ uptake) of the same compound?
**A.** Its IC50 is 2540 ± 140 nM.

**Q.** And the IC50 (hOCT3; substrate 1 µM mIBG, HEK293, 2 min, 37 °C, mean ± SD, read-out: IC50, hOCT3-mediated mIBG uptake)?
**A.** Its IC50 is 1200 ± 30 nM.

**Q.** What about the “In vivo DDI study recommendation, hOCT3” value (hOCT3; substrate MPP+) of the same compound?
**A.** Its value is “Yes”.

**Q.** And the “In vivo DDI study recommendation, hOCT3” value (hOCT3; substrate mIBG)?
**A.** The value was “Yes”.

**Q.** And the “In vivo DDI study recommendation, hOCT3” value (hOCT3; substrate metformin)?
**A.** The value was “Yes”.

**Q.** And the inhibition at 20 µM (hMATE1; [1])?
**A.** Its inhibition at 20 µM is over 80%.

**Q.** What about the IC50 (hMATE1; IC50, hMATE1-mediated MPP+ uptake, substrate 1 µM [3H]MPP+, HEK293, 2 min, 37 °C, mean ± SD) of the same compound?
**A.** The IC50 was 2030 ± 240 nM.

**Q.** What about the IC50 (hMATE1; IC50, hMATE1-mediated [14C]metformin uptake, Coincubation, coincubation (no preincubation), preincubation study, 8.9 µM [14C]metformin, 2 min uptake) of the same compound?
**A.** The IC50 was 1410 ± 60 nM.

**Q.** What about the IC50 (hMATE1; IC50, hMATE1-mediated [14C]metformin uptake, Preincubation, 30-min preincubation with inhibitor at 37 °C, 8.9 µM [14C]metformin, 2 min uptake) of the same compound?
**A.** The IC50 was 970 ± 90 nM.

**Q.** And the IC50 (hMATE1; IC50, hMATE1-mediated mIBG uptake, substrate 1 µM mIBG, HEK293, 2 min, 37 °C, mean ± SD)?
**A.** Its IC50 is 1930 ± 150 nM.

**Q.** And the IC50 (hMATE1; IC50, hMATE1-mediated metformin uptake, substrate 8.9 µM [14C]metformin, HEK293, 2 min, 37 °C, mean ± SD)?
**A.** Its IC50 is 1670 ± 140 nM.

**Q.** What about the “substrate dependency, hMATE1: differences in IC50 values across substrates” value (hMATE1; metformin, mIBG, MPP+) of the same compound?
**A.** The value was “below two-fold”.

**Q.** What about the “In vivo DDI study recommendation, hMATE1” value (hMATE1; substrate MPP+) of the same compound?
**A.** The value was “Yes”.

**Q.** And the “In vivo DDI study recommendation, hMATE1” value (hMATE1; substrate mIBG)?
**A.** The value was “Yes”.

**Q.** And the “In vivo DDI study recommendation, hMATE1” value (hMATE1; substrate metformin)?
**A.** Its value is “Yes”.

**Q.** What about the “substrate dependency, hMATE2-K: more potent with metformin than with mIBG” value (hMATE2-K; IC50 ratio mIBG/metformin) of the same compound?
**A.** Its value is “approximately 4 fold”.

**Q.** What about the IC50 (hMATE2-K; substrate 1 µM [3H]MPP+, read-out: IC50, hMATE2-K-mediated MPP+ uptake) of the same compound?
**A.** Its IC50 is over 300 µM.

**Q.** And the IC50 (hMATE2-K; substrate 8.9 µM [14C]metformin, read-out: IC50, hMATE2-K-mediated metformin uptake)?
**A.** Its IC50 is 38.3 ± 1.7 µM.

**Q.** What about the “In vivo DDI study recommendation, hMATE2-K” value (hMATE2-K; substrate MPP+) of the same compound?
**A.** The value was “No”.

**Q.** And the “In vivo DDI study recommendation, hMATE2-K” value (hMATE2-K; substrate mIBG)?
**A.** The value was “No”.

**Q.** And the “In vivo DDI study recommendation, hMATE2-K” value (hMATE2-K; substrate metformin)?
**A.** Its value is “No”.

**Q.** And the IC50 (hOCT2; 30-min preincubation with inhibitor at 37 °C, 8.9 µM [14C]metformin, 2 min uptake, read-out: IC50, hOCT2-mediated [14C]metformin uptake, Preincubation)?
**A.** The IC50 was 15.5 ± 0.5 µM.

**Q.** What about the IC50 (hOCT2; coincubation (no preincubation), preincubation study, 8.9 µM [14C]metformin, 2 min uptake, read-out: IC50, hOCT2-mediated [14C]metformin uptake, Coincubation) of the same compound?
**A.** Its IC50 is 36 ± 1.1 µM.

**Q.** What about the IC50 (hOCT2; substrate 1 µM [3H]MPP+, HEK293, 2 min, 37 °C, mean ± SD, read-out: IC50, hOCT2-mediated MPP+ uptake) of the same compound?
**A.** Its IC50 is over 300 µM.

**Q.** What about the IC50 (hOCT2; substrate 1 µM mIBG, HEK293, 2 min, 37 °C, mean ± SD, read-out: IC50, hOCT2-mediated mIBG uptake) of the same compound?
**A.** The IC50 was over 100 µM.

**Q.** What about the IC50 (hOCT2; substrate 8.9 µM [14C]metformin, HEK293, 2 min, 37 °C, mean ± SD, read-out: IC50, hOCT2-mediated metformin uptake) of the same compound?
**A.** Its IC50 is 30.2 ± 1.5 µM.

**Q.** And the “In vivo DDI study recommendation, hOCT2” value (hOCT2; substrate MPP+)?
**A.** The value was “No”.

**Q.** And the “In vivo DDI study recommendation, hOCT2” value (hOCT2; substrate mIBG)?
**A.** Its value is “No”.

**Q.** And the “In vivo DDI study recommendation, hOCT2” value (hOCT2; substrate metformin)?
**A.** Its value is “No”.

**Q.** What about the “inhibition of hOCT2 (in words)” value (hOCT2; substrates metformin, mIBG, MPP+) of the same compound?
**A.** The value was “not a strong inhibitor”.
